# Laboratory results as given in ChEMBL document CHEMBL1201862, “PubChem BioAssay data set” (2004).
# Calls of active or inactive are those of the source.
# How the values were obtained:
# [1] = IC50 of insulin release inhibition, rat insulinoma INS-1E line, 5 mM glucose, cell-based (AID 1117331); assay type: functional
# [2] = cells; assay type: functional, cell-based; conditions: INS-1E
# [3] = target: T1, Tyrosine-protein phosphatase non-receptor type 7 (Homo sapiens, UniProt P35236); assay: HePTP tyrosine phosphatase activity blockers – biochemical, absorbance, leukemia target, primary screen (AID 521); assay type: functional
# T1 sequence (P35236 whole entry): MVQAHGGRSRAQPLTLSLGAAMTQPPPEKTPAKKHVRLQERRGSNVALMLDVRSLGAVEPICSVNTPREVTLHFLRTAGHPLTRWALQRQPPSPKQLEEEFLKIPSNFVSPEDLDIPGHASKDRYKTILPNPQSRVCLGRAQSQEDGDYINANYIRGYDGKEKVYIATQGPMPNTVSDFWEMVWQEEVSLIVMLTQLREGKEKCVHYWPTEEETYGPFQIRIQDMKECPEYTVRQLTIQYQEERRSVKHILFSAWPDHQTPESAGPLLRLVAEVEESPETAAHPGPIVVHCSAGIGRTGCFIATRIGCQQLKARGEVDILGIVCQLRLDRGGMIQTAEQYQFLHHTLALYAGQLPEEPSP
# [4] = target: Transthyretin (Homo sapiens, UniProt P02766); assay: Luminescence-based cell-based high throughput dose response assay to identify activators of Transthyretin (TTR) transcription.; assay type: functional
# [5] = toxicity to human hepatoma HepG2 cells – cell-based, cherry-picked samples, cytotoxicity control, dose response (AID 1159577); assay type: functional
# [6] = P. falciparum Dd2 growth inhibitors, dose response, SYBR Green, cherry-picked samples (AID 1159567); assay type: functional, cell-based
# [7] = A2780 cell killing – plate reader, dry powder samples, cytotoxicity control, dose response (AID 743046); assay type: functional, cell-based
# [8] = IGROV1 cell killing – plate reader, dry powder samples, PAX8 inhibitor project, dose response (AID 743043); assay type: functional, cell-based; conditions: IGROV-1
# [9] = OVCAR8 cell viability loss – plate reader, dry powder samples, PAX8 project, dose response (AID 743197); assay type: functional, cell-based; conditions: OVCAR-8
# [10] = OVCAR-3 cell viability loss – plate reader, dry powder samples, PAX8 inhibitor project, dose response (AID 743044); assay type: functional, cell-based
# [11] = toxicity toward immortalized ovarian surface epithelium – cell-based, plate reader, dry powder samples, cytotoxicity control for PAX8 inhibitor project, dose response (AID 743045); assay type: functional
# [12] = target: Paired box protein Pax-8 (Homo sapiens, UniProt Q06710); assay: PAX8 transcriptional activity inhibition in RMG-I – RMG-I cells, luciferase, cherry-pick, dose response (AID 687027); assay type: functional, cell-based;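 also: luciferase reporter driven by Pax8 target thyroperoxidase promoter measured by SteadyGlo luminescence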
# Sequence of Paired box protein Pax-8 (Q06710 whole entry): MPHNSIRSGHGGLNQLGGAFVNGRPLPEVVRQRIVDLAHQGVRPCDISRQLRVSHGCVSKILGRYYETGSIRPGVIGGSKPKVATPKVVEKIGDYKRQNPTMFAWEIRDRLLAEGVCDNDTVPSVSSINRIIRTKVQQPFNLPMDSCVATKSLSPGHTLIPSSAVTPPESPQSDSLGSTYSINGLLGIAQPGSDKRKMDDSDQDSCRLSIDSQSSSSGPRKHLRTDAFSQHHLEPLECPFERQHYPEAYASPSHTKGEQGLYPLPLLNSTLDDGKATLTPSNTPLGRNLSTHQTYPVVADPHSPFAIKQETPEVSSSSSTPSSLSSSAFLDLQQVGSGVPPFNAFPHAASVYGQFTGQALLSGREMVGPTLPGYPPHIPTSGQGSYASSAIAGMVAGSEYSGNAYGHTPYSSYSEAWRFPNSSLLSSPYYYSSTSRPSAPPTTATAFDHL
compound,measurement,setting,value
Nc1c2c(nc3ccccc13)CCCC2 [TACRINE],IC50,[1],17.6 µM (inactive)
same,IC50,[2],> 33.3 µM (inactive)
O=C(NCc1ccc(F)cc1)c1cc2ccccn2n1,IC50,[3],> 100 µM (not active)
CCn1ncc(/C=N\NC(=O)c2csc3ccccc23)c1C,EC50,[4],> 167 µM (inactive)
O=C(Nc1cccc(F)c1)N1CCCCN2[C@@H](CO)[C@H](c3ccc(C#Cc4ccccc4)cc3)[C@@H]2C1,AC50,[5],7.6 µM (active)
same,AC50,[6],< 300 nM (active)
same,AC50,[7],19.8 µM (active)
same,AC50,[8],29.4 µM (active)
same,AC50,[9],65.6 µM (active)
same,AC50,[10],17.2 µM (active)
same,AC50,[11],63.4 µM (active)
same,AC50,[12],9.89 µM (active)
